US6846659B2, “Isolation and bacterial expression of a sesquiterpene synthase cDNA clone from peppermint (Mentha x piperita, L.) that produces the aphid alarm pheromone (E)-β-farnesene” (Washington State University Research Foundation, priority 1997, dated 2005)

Assays:
[1] = molecular target: T1, recombinant (E)-β-farnesene synthase (SEQ ID NO:2) (Mentha piperita, UniProt O48935); test: Kinetic characterization of recombinant, partially purified (E)-β-farnesene synthase (sesquiterpene/monoterpene/diterpene synthase assay); assay type: biochemical, peppermint (Mentha piperita)
T1 construct: made in house; host or cells: E. coli XL1-Blue harboring pBluescript clone p43
T1 sequence (O48935 1-550): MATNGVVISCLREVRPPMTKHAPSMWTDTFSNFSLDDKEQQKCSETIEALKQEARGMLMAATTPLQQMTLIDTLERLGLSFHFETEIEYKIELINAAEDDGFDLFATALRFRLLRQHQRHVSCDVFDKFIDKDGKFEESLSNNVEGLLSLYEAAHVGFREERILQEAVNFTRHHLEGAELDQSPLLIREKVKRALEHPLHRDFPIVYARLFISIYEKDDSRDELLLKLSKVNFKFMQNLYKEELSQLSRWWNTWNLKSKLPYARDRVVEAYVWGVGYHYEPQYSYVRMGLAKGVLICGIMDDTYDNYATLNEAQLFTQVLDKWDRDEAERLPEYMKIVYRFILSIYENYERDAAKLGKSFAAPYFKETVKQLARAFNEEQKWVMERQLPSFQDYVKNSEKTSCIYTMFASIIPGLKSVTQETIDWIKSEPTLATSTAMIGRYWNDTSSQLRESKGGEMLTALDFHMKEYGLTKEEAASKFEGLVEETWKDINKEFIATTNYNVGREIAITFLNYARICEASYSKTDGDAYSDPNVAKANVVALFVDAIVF
Method: (§1) Cell-Free Assays. […] The sonicate was centrifuged at 3700×g for 15 minutes, and an aliquot of the supernatant was then placed in a 10 ml screw-capped glass test tube containing divalent metal ions (10 mM MgCl2 and 1 mM MnCl2) and substrate (7.3 μM [1-^3H]FDP). The aqueous layer was overlaid with 1 ml pentane and the seated tube was incubated at 30° C. for two hours. The pentane overlay was then collected and the aqueous layer was extracted twice (1 ml) with pentane. The combined pentane extracts were passed through an anhydrous MgSO4-silica gel column to obtain the labeled hydrocarbon fraction for GC-MS analysis, or for radio-GC analysis using peppermint oil as an internal standard.
(§2) The chilled sonicate was cleared by centrifugation and the supernatant was assayed for sesquiterpene synthase activity as before, or for monoterpene synthase activity (with 4.5 μM [1-^3H]GDP) or diterpene synthase activity (with 10 μM [1-^3H]GGDP). In all cases, the pentane-soluble reaction products were purified by MgSO4-silica gel chromatography, as above, to prepare the olefin fraction for further analysis.
(§3) For determination of the pH optimum of (E)-β-farnesene synthase (SEQ ID NO:2), the preparation was adjusted with 50 mM Mopso (to a pH of 6.5, 6.75, 7.0, 7.25, 7.5, 8.0, or 8.5) before the assay. Kinetic constants for FDP, GDP, Mg^++ and Mn^++ were determined using a preparation of (E)-β-farnesene synthase (SEQ ID NO:2) that was partially purified by anion-exchange chromatography (on a Mono-Q column (Pharmacia) equilibrated with assay buffer and eluted with a linear KCl gradient (0 to 500 mM) in assay buffer). The 210-230 mM fraction containing the (E)-β-farnesene synthase (SEQ ID NO:2) was used for kinetic evaluation of FDP and GDP as substrates (concentration range 0.31 to 20 μM, with saturating Mg^++). […] Kinetic constants for Mg^++ and Mn^++ (assay range 1 μM to 2 mM of the chloride salts) were then determined at 7.3 μM [1-^3H]FDP. […]

[2] = system: aphids; details: dose of 100 ng/aphid; cited from earlier work
[3] = system: whiteflies; details: vapor; cited from earlier work
[4] = substrate: CC(C)=CCC/C(C)=C/CC/C(C)=C/CO[P@@](=O)(O)OP(=O)(O)O; test: Kinetic characterization of recombinant, partially purified (E)-β-farnesene synthase (sesquiterpene/monoterpene/diterpene synthase assay); assay type: biochemical, peppermint (Mentha piperita); details: other: substrate range 0.31 to 20 μM, saturating Mg++; double reciprocal plot
Method: as §1, §2, §3

## CC(C)=CCC/C(C)=C/COP(=O)(O)OP(=O)(O)O [GDP, geranyl diphosphate]
[1]; substrate range 0.31 to 20 μM, saturating Mg++, double reciprocal plot
  Km: 1.5 µM

## CC(C)=CCC/C(C)=C/CC/C(C)=C/CC/C(C)=C/COP(=O)(O)OP(=O)(O)O [[1-^3H]GGDP, geranylgeranyl diphosphate]
[1]; C20 substrate analog, 10 μM
  activity of the synthase with the substrate analog: inactive

## C=CC(=C)CC/C=C(\C)CCC=C(C)C [(E)-β-farnesene]
[2]
  acute toxicity to aphids: acutely toxic
[3]
  toxicity to whiteflies: toxic

B1: recombinant (E)-β-farnesene synthase (SEQ ID NO:2) (Mentha x piperita) (protein)
chain: MATNGVVISCLREVRPPMTKHAPSMWTDTFSNFSLDDKEQQKCSETIEALKQEARGMLMAATTPLQQMTLIDTLERLGLSFHFETEIEYKIELINAAEDDGFDLFATALRFRLLRQHQRHVSCDVFDKFIDKDGKFEESLSNNVEGLLSLYEAAHVGFREERILQEAVNFTRHHLEGAELDQSPLLIREKVKRALEHPLHRDFPIVYARLFISIYEKDDSRDELLLKLSKVNFKFMQNLYKEELSQLSRWWNTWNLKSKLPYARDRVVEAYVWGVGYHYEPQYSYVRMGLAKGVLICGIMDDTYDNYATLNEAQLFTQVLDKWDRDEAERLPEYMKIVYRFILSIYENYERDAAKLGKSFAAPYFKETVKQLARAFNEEQKWVMERQLPSFQDYVKNSEKTSCIYTMFASIIPGLKSVTQETIDWIKSEPTLATSTAMIGRYWNDTSSQLRESKGGEMLTALDFHMKEYGLTKEEAASKFEGLVEETWKDINKEFIATTNYNVGREIAITFLNYARICEASYSKTDGDAYSDPNVAKANVVALFVDAIVF
notes: made in house; host or cells: E. coli XL1-Blue harboring pBluescript clone p43
[4]
  Km: 0.6 µM
